Experimental data published in patent US20260250290A1 (BRISTOL-MYERS SQUIBB COMPANY, priority 2023, published 2026).
Structures can show the parent of a compound that is named as a salt.

Molecular target: T1, SGK1 (Homo sapiens, UniProt O00141)
T1 sequence (O00141 1-431): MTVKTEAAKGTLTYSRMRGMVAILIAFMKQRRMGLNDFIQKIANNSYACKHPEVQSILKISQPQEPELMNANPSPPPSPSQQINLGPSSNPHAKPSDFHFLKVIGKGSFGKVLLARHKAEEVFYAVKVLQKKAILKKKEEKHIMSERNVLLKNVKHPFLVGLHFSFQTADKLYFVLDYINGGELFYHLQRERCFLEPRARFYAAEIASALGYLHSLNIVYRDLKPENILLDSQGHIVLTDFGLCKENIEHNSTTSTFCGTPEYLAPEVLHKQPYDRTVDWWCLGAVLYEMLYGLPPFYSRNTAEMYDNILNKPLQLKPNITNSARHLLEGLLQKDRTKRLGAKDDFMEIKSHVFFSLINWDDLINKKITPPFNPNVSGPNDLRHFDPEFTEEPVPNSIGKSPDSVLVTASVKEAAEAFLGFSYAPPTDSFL
Assay: SGK1 inhibition Assay B (Echo mass spectrometry of phosphorylated peptide product)
Format: biochemical
Details: 60 min at room temperature
Experimental: 20 μl of 2 nM SGK1 were added in 20 mM Hepes+10 mM MgCl2+0015% Brij-35+4 mM DTT+0.05 mg/ml BSA and the reaction incubated for 60 min at room temperature. The enzymatic reaction was quenched by addition 10 μl of 1% Formic Acid+150 nM Internal Standard: FITC-(Ahx)KKRNRR(pS)VA^—OH (final concentration). The plates are spun down at 3700 RPM for 10 minutes to remove all precipitate. Samples were loaded on to the Sciex Echo Mass Spec attached to a Sciex 6500 equipped with ESI and was used to analyze the phosphorylated peptide product. MRM transition of product and internal standard were monitored at m/z 755 to 937.5 and m/z 757.7 to 941.3 respectively. Peak area of analyte was normalized with internal standard.
Dose response curves were generated to determine the concentration required for inhibiting 50% of the enzyme activity. Compounds were dissolved at 10 mM in dimethylsulfoxide (DMSO) and evaluated at eleven concentrations.

| SMILES | IC50 |
| --- | --- |
| Cc1cc(O[C@@H]2C[C@H]3CC[C@@H](C2)N3C)c(C(=O)N[C@@H]2CCCN(c3cc(-c4cc(F)c(-n5cnnn5)c(F)c4)n4ncnc(N)c34)C2)s1 [Example 844, N-((R)-1-(4-amino-7-(3,5-difluoro-4-(1H-tetrazol-1-yl)phenyl)pyrrolo[2,1-f][1,2,4]triazin-5-yl)piperidin-3-yl)-5-methyl-3-(((1R,3s,5S)-8-methyl-8-azabicyclo[3.2.1]octan-3-yl)oxy)thiophene-2-carboxamide] | 3 nM |
| Cc1cc(O[C@@H]2C[C@H]3CC[C@@H](C2)N3C)c(C(=O)N[C@@H]2CCCN(c3cc(-c4cnc(-n5cnnn5)c(F)c4)n4ncnc(N)c34)C2)s1 [Example 845, N-((R)-1-(4-amino-7-(5-fluoro-6-(1H-tetrazol-1-yl)pyridin-3-yl)pyrrolo[2,1-f][1,2,4]triazin-5-yl)piperidin-3-yl)-5-methyl-3-(((1R,3s,5S)-8-methyl-8-azabicyclo[3.2.1]octan-3-yl)oxy)thiophene-2-carboxamide, TFA salt] | 3 nM |
| CC(=O)c1ccc(-c2cc(N3CCC[C@@H](NC(=O)c4sc(C)cc4O[C@@H]4C[C@H]5CC[C@@H](C4)N5C)C3)c3c(N)ncnn23)cn1 [Example 846, N-((R)-1-(7-(6-acetylpyridin-3-yl)-4-aminopyrrolo[2,1-f][1,2,4]triazin-5-yl)piperidin-3-yl)-5-methyl-3-(((1R,3s,5S)-8-methyl-8-azabicyclo[3.2.1]octan-3-yl)oxy)thiophene-2-carboxamide] | 16 nM |
| Cc1cc(O[C@@H]2C[C@H]3CC[C@@H](C2)N3C)c(C(=O)N[C@@H]2CCCN(c3cc(-c4ccc(-n5cnnn5)c(F)c4)n4ncnc(N)c34)C2)s1 [Example 847, N-((R)-1-(4-amino-7-(3-fluoro-4-(1H-tetrazol-1-yl)phenyl)pyrrolo[2,1-f][1,2,4]triazin-5-yl)piperidin-3-yl)-5-methyl-3-(((1R,3s,5S)-8-methyl-8-azabicyclo[3.2.1]octan-3-yl)oxy)thiophene-2-carboxamide, TFA salt] | 2 nM |
| Cc1cc(O[C@@H]2C[C@H]3CC[C@@H](C2)N3C)c(C(=O)N[C@@H]2CCCN(c3cc(-c4cnn(C(F)F)c4)n4ncnc(N)c34)C2)s1 [Example 848, N-((R)-1-(4-amino-7-(1-(difluoromethyl)-1H-pyrazol-4-yl)pyrrolo[2,1-f][1,2,4]triazin-5-yl)piperidin-3-yl)-5-methyl-3-(((1R,3s,5S)-8-methyl-8-azabicyclo[3.2.1]octan-3-yl)oxy)thiophene-2-carboxamide, TFA salt] | 6 nM |
| CN1CCN(c2nccc(C(=O)N[C@@H]3CCCN(c4cc(-c5ccc(-n6cnnn6)c(F)c5)n5ncnc(N)c45)C3)n2)CC1 [Example 849, (R)-N-(1-(4-amino-7-(3-fluoro-4-(1H-tetrazol-1-yl)phenyl)pyrrolo[2,1-f][1,2,4]triazin-5-yl)piperidin-3-yl)-2-(4-methylpiperazin-1-yl)pyrimidine-4-carboxamide] | 2 nM |
| Cc1cc(-c2cc(N3CCC[C@@H](NC(=O)c4ccnc(N5CCN(C)CC5)n4)C3)c3c(N)ncnn23)ccc1-n1cnnn1 [Example 850, (R)-N-(1-(4-amino-7-(3-methyl-4-(1H-tetrazol-1-yl)phenyl)pyrrolo[2,1-f][1,2,4]triazin-5-yl)piperidin-3-yl)-2-(4-methylpiperazin-1-yl)pyrimidine-4-carboxamide] | 10 nM |
| CC(=O)c1ccc(-c2cc(N3CCC[C@@H](NC(=O)c4ccnc(N5CCN(C)CC5)n4)C3)c3c(N)ncnn23)cn1 [Example 851, (R)-N-(1-(7-(6-acetylpyridin-3-yl)-4-aminopyrrolo[2,1-f][1,2,4]triazin-5-yl)piperidin-3-yl)-2-(4-methylpiperazin-1-yl)pyrimidine-4-carboxamide] | 18 nM |
| CN1CCN(c2nccc(C(=O)N[C@@H]3CCCN(c4cc(-c5ccc(-n6cnnn6)c(CO)c5)n5ncnc(N)c45)C3)n2)CC1 [Example 852, (R)-N-(1-(4-amino-7-(3-(hydroxymethyl)-4-(1H-tetrazol-1-yl)phenyl)pyrrolo[2,1-f][1,2,4]triazin-5-yl)piperidin-3-yl)-2-(4-methylpiperazin-1-yl)pyrimidine-4-carboxamide, TFA salt] | 10 nM |
| CN1CCN(c2nccc(C(=O)N[C@@H]3CCCN(c4cc(-c5cc(F)c(-n6cnnn6)cc5F)n5ncnc(N)c45)C3)n2)CC1 [Example 853, (R)-N-(1-(4-amino-7-(2,5-difluoro-4-(1H-tetrazol-1-yl)phenyl)pyrrolo[2,1-f][1,2,4]triazin-5-yl)piperidin-3-y1)-2-(4-methylpiperazin-1-yl)pyrimidine-4-carboxamide] | 12 nM |
| CN1CCN(c2nccc(C(=O)N[C@@H]3CCCN(c4cc(-c5cc(F)c(-n6cnnn6)c(F)c5)n5ncnc(N)c45)C3)n2)CC1 [Example 854] | 1 nM |
| COc1cc(-c2cc(N3CCC[C@@H](NC(=O)c4ccnc(N5CCN(C)CC5)n4)C3)c3c(N)ncnn23)ccc1-n1cnnn1 [Example 855, (R)-N-(1-(4-amino-7-(3-methoxy-4-(1H-tetrazol-1-yl)phenyl)pyrrolo[2,1-f][1,2,4]triazin-5-yl)piperidin-3-yl)-2-(4-methylpiperazin-1-yl)pyrimidine-4-carboxamide] | 14 nM |
| CN1CCN(c2nccc(C(=O)N[C@@H]3CCCN(c4cc(-c5cnc(-n6cnnn6)nc5)n5ncnc(N)c45)C3)n2)CC1 [Example 856, (R)-N-(1-(7-(2-(1H-tetrazol-1-yl)pyrimidin-5-yl)-4-aminopyrrolo[2,1-f][1,2,4]triazin-5-yl)piperidin-3-yl)-2-(4-methylpiperazin-1-yl)pyrimidine-4-carboxamide] | 16 nM |
| CN1CCN(c2nccc(C(=O)N[C@@H]3CCCN(c4cc(-c5cnc(-n6cnnn6)c(F)c5)n5ncnc(N)c45)C3)n2)CC1 [Example 858] | 4 nM |
| COC(=O)N1CC=C(c2cc(N3CCC[C@@H](NC(=O)c4ccnc(N5CCN(C)CC5)n4)C3)c3c(N)ncnn23)C1 [Example 859, methyl (R)-3-(4-amino-5-(3-(2-(4-methylpiperazin-1-yl)pyrimidine-4-carboxamido)piperidin-1-yl)pyrrolo[2,1-f][1,2,4]triazin-7-yl)-2,5-dihydro-1H-pyrrole-1-carboxylate] | 5 nM |
| N#Cc1ccc(C(=O)N[C@@H]2CCCN(c3cc(-c4cnc(-n5cnnn5)c(F)c4)n4ncnc(N)c34)C2)s1 [Example 860, (R)-N-(1-(4-amino-7-(5-fluoro-6-(1H-tetrazol-1-yl)pyridin-3-yl)pyrrolo[2,1-f][1,2,4]triazin-5-yl)piperidin-3-yl)-5-cyanothiophene-2-carboxamide] | 3 nM |
| CC(=O)N1CC=C(c2cc(N3CCC[C@@H](NC(=O)c4sc(Cl)cc4OCC45CCCN4CCC5)C3)c3c(N)ncnn23)C1 [Example 917, N-[(3R)-1-[7-(1-acetyl-2,5-dihydro-1H-pyrrol-3-yl)-4-aminopyrrolo[2,1-f][1,2,4]triazin-5-yl]piperidin-3-yl]-5-chloro-3-[(hexahydro-1H-pyrrolizin-7a-yl)methoxy]thiophene-2-carboxamide] | 3 nM |
| Cc1nc(O[C@@H]2CC[C@H]3[C@H](CCN3C)C2)c(C(=O)N[C@@H]2CCCN(c3cc(-c4ccc(C(N)=O)c(F)c4)n4ncnc(N)c34)C2)s1 [Example 918, 4-{[(3aR,5R,7aS)-1-methyl-octahydro-1H-indol-5-yl]oxy}-N-[(3R)-1-[4-amino-7-(4-carbamoyl-3-fluorophenyl)pyrrolo[2,1-f][1,2,4]triazin-5-yl]piperidin-3-yl]-2-methyl-1,3-thiazole-5-carboxamide] | 2 nM |
